Test results taken from patent US6951866B2, “Bicyclic pyrimidine compounds and therapeutic use thereof” (Sumitomo Pharmaceuticals Company, Limited, priority 1998, dated 2005).
Read-outs that look alike come from different tables or passages of the source.

Assays:
Type in all cases: cell-based
IL-4 = test: Cytokine production (IL-4) from KLH-stimulated mouse lymph node cells, ELISA; details: 4 days; for IC50: Mus musculus, 96 h, lymph node cells of KLH-sensitized BALB/c mice, KLH 0.1 mg/ml, read-out: IL-4 inhibition activity IC50; for production of IL-4: Test 3, KLH-stimulated mouse lymph node cells
Description: (§1) Activity on Cytokines Production from Mouse Lymph Node Cells by Compounds of Working Examples
(§2) BALB/c mice were purchased from Japan Charlse River (Yokohama) and 8 weeks female mice were used.
(§3) D-MEM (High Glucose) medium (Nikken Biomedical Research Lab. (Kyoto), Code No. CM4402) supplemented with 20% heat-inactivated (56° C., 30 min.) fetal bovine serum (Characterized, Code No. A-1115-L, HyClone Lab., Logan, Utah), 50 μM 2-mercaptoethanol (Sigma, St. Louis, Mo., Code No. M-6250), 100 unit/ml penicillin and 100 μg/ml streptomycin (Penicillin-Streptomycin, Bibco-BRL, Code No. 15140-122) were used for the assay.
Each test compound dissolved in DMSO (Nacalai Tesque (Kyoto) code No. 11J) at a concentration of 100 mM was diluted to final concentration with the medium.
KLH (0.2 mg) was subcutaneously administered to mouse foot with Freund's complete adjuvant (Difco Lab., Detroit, Mich., Code No. 3113-60-5). Eight days later popliteal lymph node was picked up and its cell suspension was prepared.
(§4) KLH (0.1 mg/ml) and the test compound were added to lymph node cells (2.5×10^6 cells/ml) and the mixture was incubated at 37° C. under 5% CO2 for 4 days (Corning 25850, 0.15 ml/well). Then, amount of cytokine produced in the supernatant was measured by ELISA specific to cytokine.
(§5) Amounts of interleukin 4 (IL-4) and interleukin 5 (IL-5) as a typical Th2 type cytokine, and amount of interferon γ (IFN-γ) as a typical Th1 type cytokine were measured.
Amount of IL-4 was measured by ELISA as mentioned below. A rat anti-mouse IL-4 antibody (Pharmingen, San Diego, Calif., Code No. 18031D, 0.5 mg/ml) as a primary antibody was diluted 250 times with hydrogen carbonate buffer, and it was inoculated to the 96-well plate (Falcon 3912, Becton Dickinson and Company, Flanklin Lakes, N.J.) (50μ/well) and each well was coated at 4° C. overnight. Then the plate was blocked with PBS (−) solution (phosphate-buffered saline without calcium chloride and magnesium chloride) containing 3% BSA (200 μl/well). After rinsing the plate three times with PBS (−) solution containing 0.05% polyoxyethylene solbitan monolaurate (Tween 20™, Nacalai Tesque (Kyoto) Code No. 281-51) (PBST), the supernatant of the culture medium was added to the wells (50 μl/well) and incubated at room temperature for 4 hours. Recombinant mouse IL-4 (Pharmingen, Code No. 19231W) was used for preparing a calibration curve.
After rinsing the plate three times with PBST, a rat anti-mouse IL-4 antibody labeled by biotin (Pharmingen, Code No. 18042D, 0.5 mg/ml) as a secondary antibody, which was diluted 500 times with PBS (−) solution containing 0.1% BSA, was poured into wells (100 μl/well). The plate was incubated at room temperature for one hour. The secondary antibody bound to the plate was detected with streptoabidin alkaliphosphatase (Kirkegaad & Perry Lab., Gaithersburg, Md., Code No. 15-30-00) (0.25 μg/ml, 100 μl/well). After incubation of the plate at 37° C. for one hour and rinsing the plate three times with PBST, the coloring was done by adding PNPP substrate (p-nitrophenyl disodium phosphate substrate (Nacalai Tesque) (1 mg/ml, 100 μl/well)). The absorption at 415 nm was measured by a microplate reader (MTP-120 Microplate reader, Corona Electric Co.)
In the same manner as in Test 1, each test compound dissolved in DMSO (Nacalai Tesque (Kyoto) code No. 11J) at a concentration of 100 mM was diluted to final concentration with the medium. Sensitization and preparation of lymph node cells, production of cytokine by stimulation with an antigen and measurement of amounts of cytokines were conducted in the same method as in Test 1.
By measuring inhibition rate of production of IL-4 at various concentrations of each test compound and using a graph relating to the compound concentration and the inhibition rate, 50% inhibition concentration (IC50) on each test compound was calculated.

IFN-γ = test: Cytokine production (IFN-γ) from KLH-stimulated mouse lymph node cells, ELISA; details: Test 3, 4 days
Description: as §1, §2, §3
(§6) Each test compound dissolved in DMSO (Nacalai Tesque (Kyoto) code No. 11J) at a concentration of 100 mM was diluted to final concentration with the medium. […]
as §4, §5
(§7) Amount of IL-4 was measured by ELISA as mentioned below. […]

IL-5 = test: Cytokine production (IL-5) from KLH-stimulated mouse lymph node cells, ELISA; details: Test 3, 4 days
Description: as §1, §2, §3, §6, §4, §5, §7

| Structure (SMILES) | IC50 (IL-4; Test 2, Table 1) | other results |
| --- | --- | --- |
| CCCCC(Nc1nc(N)nc2c1CCCC2)C(=O)OC (stereo not drawn) [Example 9, Methyl 2-[(2-amino-5,6,7,8-tetrahydroquinazoline-4-yl)amino)hexanoate] | 1 µg/mL | – |
| Nc1nc2c(c(NCC3CCCCC3)n1)CCCC2 [Example 2, N-(2-Amino-5,6,7,8-tetrahydroquinazoline-4-yl)-N-(cyclohexylmethyl)amine] | 0.6 µg/mL | – |
| CCCCCNc1nc(N)nc2c1COCC2 [Example 16, N-(2-Amino-7,8-dihydro-5H-pyrano[4,3-d]pyrimidine-4-yl)-N-pentylamine] | 3 µg/mL | – |
| CCOC(=O)C(CC(C)C)Nc1nc(N)nc2c1CCCC2 (stereo not drawn) [Example 3, Ethyl-2-[(2-amino-5,6,7,8-tetrahydroquinazoline-4-yl)amino]-4-methylpentanoate] | 0.5 µg/mL | – |
| CCOC(=O)C(CO)Nc1nc(N)nc2c1CCCC2 (stereo not drawn) [Example 8, Ethyl 2-[(2-amino-5,6,7,8-tetrahydroquinazoline-4-yl)amino]-3-hydroxypropanoate] | 1 µg/mL | – |
| CCCCCCc1c(C)nc(N)nc1NCCCCC [Example 15, N-(2-Amino-5-hexyl-6-methylpyrimidine-4-yl)-N-pentylamine] | 0.4 µg/mL | – |
| CCCCCNc1nc(N)nc(C)c1CCC#N [Example 23, 3-[2-Amino-4-methyl-6-(pentylamino)pyrimidine-5-yl]propanenitrile] | 0.5 µg/mL | – |
| CCCCCCNc1nc(N)nc2c1CCCC2 [Example 6, N-(2-Amino-5,6,7,8-tetrahydroquinazoline-4-yl)-N-hexylamine] | 1 µg/mL | – |
| CCCCc1c(C)nc(N)nc1NCC(O)CCC (stereo not drawn) [Example 25, 1-[(2-Amino-5-butyl-6-methylpyrimidine-4-yl)amino]pentane-2-ol] | 0.1 µg/mL | – |
| CCOCCNc1nc(N)nc2c1CCCC2 [Example 4, N-(2-Amino-5,6,7,8-tetrahydroquinazoline-4-yl)-N-(2-ethoxyethyl)amine] | 3 µg/mL | – |
| CCCCCNc1nc(N)nc(C)c1CCCC [Example 14, N-(2-Amino-5-butyl-6-methylpyrimidine-4-yl)-N-pentylamine] | 0.1 µg/mL | – |
| CCCCC(Nc1nc(N)nc2c1CCCC2)C(N)=O (stereo not drawn) [Example 21] | 0.5 µg/mL | – |
| CCCCCNc1nc(N)nc(C)c1CC [Example 24, N-[2-Amino-5-ethyl-6-methylpyrimidine-4-yl)-N-pentylamine] | 0.2 µg/mL | – |
| CCCCCNc1nc(N)nc2c1CCCC2 [Example 19, N-(2-Amino-5,6,7,8-tetrahydroquinazoline-4-yl)-N-pentylamine] | 0.2 µg/mL | – |
| CCCC(=O)CNc1nc(N)nc2c1CCCC2 [Example 12, 1-[(2-Amino-5,6,7,8-tetrahydroquinazoline-4-yl)amino]pentane-2-one] | 1 µg/mL | – |
| CCCCCNc1nc(N)nc(C)c1Cc1ccccc1 [Example 26, N-(2-Amino-5-benzyl-6-methylpyrimidine-4-yl)-N-pentylamine] | – | IC50 (IL-4; Test 4, Table 2): 0.5 µg/mL; production of IL-4 (IL-4): inhibit the production; production of IFN-γ (IFN-γ): enhance the production; production of IL-5 (IL-5): inhibit the production |
| CCOC(=O)CNc1nc(N)nc2c1CCCC2 [Example 1, Ethyl-2-[(2-amino-5,6,7,8-tetrahydroquinazoline-4-yl)amino]acetate] | 0.6 µg/mL | – |
| CCCCCNc1nc(N)nc(C)c1CCOC [Example 22, N-(2-Amino-5-(2-methoxyethyl)-6-methylpyrimidine-4-yl)-N-pentylamine] | 0.5 µg/mL | – |
| CCCCCNc1nc(N)nc(CCCC)c1C [Example 17, N-(2-Amino-6-butyl-5-methylpyrimidine-4-yl)-N-pentylamine] | 5 µg/mL | – |
| CCOC(=O)C(C)Nc1nc(N)nc2c1CCCC2 (stereo not drawn) [Example 7, Ethyl 2-[(2-amino-5,6,7,8-tetrahydroquinazoline-4-yl)amino]propanoate] | 0.5 µg/mL | – |
| Nc1nc2c(c(NCC3CCCO3)n1)CCCC2 (stereo not drawn) [Example 13, N-(2-Amino-5,6,7,8-tetrahydroquinazoline-4-yl)-N-(tetrahydorofuran-2-ylmethyl)amine] | 10 µg/mL | – |
| CCCCCNc1nc(N)ncc1Cc1ccccc1 [Example 27, N-(2-Amino-5-benzylpyrimidine-4-yl)-N-pentylamine] | – | IC50 (IL-4; Test 4, Table 2): 1 µg/mL; production of IL-4 (IL-4): inhibit the production; production of IFN-γ (IFN-γ): enhance the production; production of IL-5 (IL-5): inhibit the production |
| CCCCNc1nc(N)nc2c1CCCC2 [Example 5, N-(2-Amino-5,6,7,8-tetrahydroquinazoline-4-yl)-N-butylamine] | 0.2 µg/mL | – |
| CCCCCNc1nc(N)nc2c1CCC2 [Example 20, N-(2-Amino-6,7-dihydro-5H-cyclopenta[d]pyrimidine-4-yl)-N-pentylamine] | 0.3 µg/mL | – |
| CCCCC(CO)Nc1nc(N)nc2c1CCCC2 (stereo not drawn) [Example 10, 2-[(2-Amino-5,6,7,8-tetrahydroquinazoline-4-yl)amino]hexane-1-ol] | 0.1 µg/mL | – |
| CCCC(O)CNc1nc(N)nc2c1CCCC2 (stereo not drawn) [Example 11, 1-[(2-Amino-5,6,7,8-tetrahydroquinazoline-4-yl)amino]pentane-2-ol] | 0.1 µg/mL | – |
| CCCCCNc1nc(N)nc(C)c1C [Example 18, N-(2-Amino-5,6-dimethylpyrimidine-4-yl)-N-pentylamine] | 0.3 µg/mL | – |
